From publication PMC3753754, “Andrographis paniculata Extract and Andrographolide Modulate the Hepatic Drug Metabolism System and Plasma Tolbutamide Concentrations in Rats” (Evidence-based Complementary and Alternative Medicine : eCAM, 2013)

Experiments:
[1] = biological target: T1, pregnane X receptor (PXR) (Rattus norvegicus, UniProt Q9R1A7); assay: EMSA of liver nuclear protein binding to DR4 consensus sequence; type: in vivo; settings: APE or andrographolide for 5 days
T1 construct: from tissue; host or cells: crude liver nuclear extract of treated Sprague-Dawley rats
T1 sequence (Q9R1A7 1-431): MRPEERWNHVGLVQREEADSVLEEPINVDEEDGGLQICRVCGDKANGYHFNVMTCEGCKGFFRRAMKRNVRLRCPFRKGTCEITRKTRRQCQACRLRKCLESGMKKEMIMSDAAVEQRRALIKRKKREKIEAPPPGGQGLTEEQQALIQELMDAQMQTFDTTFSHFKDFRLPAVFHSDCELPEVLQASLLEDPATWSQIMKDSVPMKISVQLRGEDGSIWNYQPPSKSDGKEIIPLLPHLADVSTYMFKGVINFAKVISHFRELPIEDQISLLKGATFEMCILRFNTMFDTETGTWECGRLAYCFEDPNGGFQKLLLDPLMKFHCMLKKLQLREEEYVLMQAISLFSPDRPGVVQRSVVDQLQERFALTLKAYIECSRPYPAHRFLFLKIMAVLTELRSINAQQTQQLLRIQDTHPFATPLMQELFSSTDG
T1 sequence (Q05343 1-467 partner): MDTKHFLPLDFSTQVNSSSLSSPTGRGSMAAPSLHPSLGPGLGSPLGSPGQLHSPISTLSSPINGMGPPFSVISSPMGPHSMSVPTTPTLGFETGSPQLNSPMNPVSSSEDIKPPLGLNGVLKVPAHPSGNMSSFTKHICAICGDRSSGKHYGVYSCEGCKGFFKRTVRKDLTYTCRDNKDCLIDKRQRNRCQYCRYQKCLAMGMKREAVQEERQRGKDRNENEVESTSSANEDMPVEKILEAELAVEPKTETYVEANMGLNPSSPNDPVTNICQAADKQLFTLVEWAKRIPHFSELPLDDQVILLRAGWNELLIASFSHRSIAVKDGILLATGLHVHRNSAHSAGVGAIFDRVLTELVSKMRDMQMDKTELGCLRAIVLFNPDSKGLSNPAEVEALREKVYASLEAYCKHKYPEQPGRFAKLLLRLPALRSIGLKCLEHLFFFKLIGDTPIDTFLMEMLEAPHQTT
Procedure: Nuclear proteins of liver tissues were extracted as described by Tian et al. with some modifications. Briefly, 0.1 g of liver was homogenized (1 : 9, w/v) with 0.9 mL of ice-cold 10 mM HEPES buffer (pH 7.9) containing 10 mM KCl, 1 mM MgCl2, 0.1 mM EDTA, 0.5 mM dithiothreitol, 0.5 mM PMSF, 4 μg/mL leupeptin, and 20 μg/mL aprotinin. The homogenates were placed in an ice bath for 15 min and then centrifuged at 600 ×g for 10 min. Then, 100 μL of 10% Nonidet P-40 was added to the supernatant, and the samples were allowed to sit in an ice bath for 10 min. The supernatant was centrifuged at 5,000 ×g for 5 min. The pellet, containing crude nuclei, was resuspended in 100 μL of hypertonic buffer containing 10 mM HEPES, 400 mM KCl, 1 mM MgCl2, 0.1 mM EDTA, 0.5 mM dithiothreitol, 4 μg/mL leupeptin, 20 μg/mL aprotinin, 25% glycerol, and 0.5 mM PMSF at 4°C for 45 min. Nuclear proteins were then collected by centrifugation at 12,000 ×g for 15 min.
EMSA was performed according to the method reported previously. The LightShift Chemiluminescent EMSA Kit (Pierce, Rockford, IL) and synthetic biotin-labeled double-stranded consensus oligonucleotides of DR4 (5′-[…]-3′) and xenobiotic response element (XRE) (forward: 5′-[…]-3′) were used to measure pregnane X receptor (PXR) and aryl hydrocarbon receptor (AhR) nuclear protein-DNA-binding activity. […]

[2] = Pharmacokinetics of tolbutamide in control, APE-pretreated and andrographolide-pretreated rats; type: in vivo, Sprague-Dawley rats; settings: rats, 2 g/kg/day APE or 50 mg/kg/day andrographolide for 5 days before 20 mg/kg tolbutamide
Procedure: Seven-week-old male Sprague-Dawley rats cannulated in the jugular vein were purchased from the Bio LASCO Experimental Animal Center (Taipei, Taiwan). The animals were fed a standard rat diet and were randomly assigned into control, APE-treated, and andrographolide-treated groups (n = 5). Rats were housed in plastic cages in a room kept at 23 ± 1°C and 60 ± 5% relative humidity with a 12-hour light and dark cycle. Food and drinking water were available ad libitum. Control rats were orally administered methyl cellulose. […] After the 5th daily dose, rats were deprived of food overnight. On day 6, a 20 mg/kg oral dose of tolbutamide, as a solution in Cremophor EL (polyoxyl 35 hydrogenated castor oil, Sigma)/ethanol/water (30/10/60, v/v/v), was administered to each rat. After the administration of tolbutamide, serial blood samples were collected up to 12 h after dosing from each rat. The animals were then killed by exsanguination, and the livers were collected.
Tolbutamide was prepared in a solution of Cremophor EL/ethanol/water (30/10/60, v/v/v). After administration, blood samples (~200 μL) were collected from the tail vein of each rat at 0.25, 0.5, 1, 2, 4, 8, and 12 h after dosing. Plasma was separated from blood by centrifugation (4000 ×g for 20 min at 4°C). An aliquot of 50 μL plasma was mixed with 100 μL acetonitrile and then centrifuged at 10,000 ×g for 15 min at 4°C. The supernatant was used to determine the concentration of tolbutamide by LC/MS. Calibration standards of tolbutamide were prepared by serial dilution of a tolbutamide stock solution with blank plasma, yielding final concentrations of tolbutamide ranging from 1 to 300 μg/mL of plasma.
The HPLC system consisted of an Agilent 1100 series LC System (Palo Alto, CA) and an Agilent Zorbax Eclipse XDB-C8 column (3 μm, 3.0 mm × 150 mm), interfaced to an Agilent MSD mass spectrometer equipped with an electrospray ionization source. Column temperature was set at 25°C. The initial mobile phase composition was 30% acetonitrile containing 10 mM ammonium acetate (solvent A) and 70% of 0.1% formic acid (solvent B). The following gradient system was used: 30% A to 50% A (0-1 min), 50% A to 98% A (1–3 min), 98% A (3–9 min), 98% A to 30% A (9-10 min), and 30% A (10–15 min). The flow rate was 0.5 mL/min. Sample injection volume was 10 μL. The MS data acquisition was via selected ion monitoring. The positive ion of the testing compound was selected, and the peak size was measured. The area under the plasma tolbutamide concentration versus time curve (AUC) was calculated by using the trapezoidal method.

## C=C1CC[C@@H]2[C@](C)(CO)[C@H](O)CC[C@@]2(C)[C@@H]1C/C=C1/C(=O)OC[C@H]1O [andrographolide, Andrographolide]
[1]
  Binding activity of the DR4 consensus sequence to nuclear protein PXR: enhanced
[2]
  Reduction of the AUC0–12 h of tolbutamide compared with controls: 18%
